Results from ChEMBL document CHEMBL3044789, “Comparing weed and crop seedling response to pre-emergence pendimethalin application in Corchorus olitorius and Abelmoschus esculentus” (Crop Prot, 2006).

Legend:
Ageratum conyzoides [1] = test: Herbicidal activity against Ageratum conyzoides in Abelmoschus esculentus plots assessed as weed recovery at 0.33 kg a.i/ha after 2 weeks (reference value: 60.1 +/- 0.46 %); assay type: functional
Asteraceae [2] = test: Herbicidal activity against Aspilia africana in Corchorus olitorius plots assessed as weed cover at 0.66 kg a.i/ha after 2 weeks (reference value: 81.7 +/- 0.43 %); assay type: functional
Euphorbia heterophylla [3] = test: Herbicidal activity against Euphorbia heterophylla in Abelmoschus esculentus plots assessed as weed cover at 0.66 kg a.i/ha after 7 weeks (reference value: 14.7 +/- 0.46 %); assay type: functional
Euphorbia heterophylla [4] = test: Herbicidal activity against Euphorbia heterophylla in Corchorus olitorius plots assessed as weed cover at 1.32 kg a.i/ha after 7 weeks (reference value: 1.7 +/- 0.56 %); assay type: functional
Euphorbia heterophylla [5] = test: Herbicidal activity against Euphorbia heterophylla in Abelmoschus esculentus plots assessed as weed recovery at 1.32 kg a.i/ha after 2 weeks (reference value: 60.1 +/- 0.46 %); assay type: functional
Abelmoschus esculentus [6] = test: Phytotoxicity in Abelmoschus esculentus assessed as shoot length at 0.33 kg a.i/ha treated to soil after 7 weeks (reference value: 8.5 +/- 0.34 mm); assay type: organism-based; settings: in vivo, other, 1176 h
Synedrella nodiflora = test: Herbicidal activity against Synedrella nodiflora in Corchorus olitorius plots assessed as weed cover at 0.33 kg a.i/ha after 7 weeks (reference value: 1.7 +/- 0.56 %); assay type: functional
Euphorbia heterophylla [7] = test: Herbicidal activity against Euphorbia heterophylla in Abelmoschus esculentus plots assessed as weed cover at 1.32 kg a.i/ha after 7 weeks (reference value: 14.7 +/- 0.46 %); assay type: functional
Corchorus olitorius [8] = test: Phytotoxicity in Corchorus olitorius assessed as seedling emergence at 0.66 kg a.i/ha treated to soil after 7 weeks (reference value: 95 +/- 0.05 %); assay type: organism-based; settings: in vivo, other, 1176 h
Ageratum conyzoides [9] = test: Herbicidal activity against Ageratum conyzoides in Abelmoschus esculentus plots assessed as weed recovery at 1.32 kg a.i/ha after 2 weeks (reference value: 60.1 +/- 0.46 %); assay type: functional
Corchorus olitorius [10] = test: Phytotoxicity in Corchorus olitorius assessed as shoot length at 1.32 kg a.i/ha applied as solution after 7 weeks (reference value: 22.9 +/- 0.8 mm); assay type: organism-based; settings: in vivo, other, 1176 h
Ageratum conyzoides [11] = test: Herbicidal activity against Ageratum conyzoides in Corchorus olitorius plots assessed as major weed growth at 0.33 kg a.i/ha after 2 weeks; assay type: functional
Corchorus olitorius [12] = test: Phytotoxicity in Corchorus olitorius assessed as seedling emergence at 0.99 kg a.i/ha treated to soil after 7 weeks (reference value: 95 +/- 0.05 %); assay type: organism-based; settings: in vivo, other, 1176 h
Corchorus olitorius [13] = test: Phytotoxicity in Corchorus olitorius assessed as shoot length at 0.99 kg a.i/ha treated to soil after 7 weeks (reference value: 23.7 +/- 0.10 mm); assay type: organism-based; settings: in vivo, other, 1176 h
Corchorus olitorius [14] = test: Phytotoxicity in Corchorus olitorius assessed as crop seedling injury at 0.33 kg a.i/ha after 2 weeks relative to untreated control; assay type: organism-based; settings: in vivo, 336 h
Euphorbia heterophylla [15] = test: Herbicidal activity against Euphorbia heterophylla in Abelmoschus esculentus plots assessed as weed cover at 0.33 kg a.i/ha after 2 weeks (reference value: 63.5 +/- 0.29 %); assay type: functional
Calopogonium mucunoides [16] = test: Herbicidal activity against Calopogonium mucunoides in Corchorus olitorius plots assessed as weed recovery at 0.33 kg a.i/ha after 2 weeks (reference value: 78.3 +/- 0.74 %); assay type: functional
Euphorbia heterophylla [17] = test: Herbicidal activity against Euphorbia heterophylla in Corchorus olitorius plots assessed as weed cover at 0.66 kg a.i/ha after 7 weeks (reference value: 1.7 +/- 0.56 %); assay type: functional
Abelmoschus esculentus [18] = test: Phytotoxicity in Abelmoschus esculentus assessed as root length at 0.99 kg a.i/ha applied as solution after 7 weeks (reference value: 23 +/- 0.34 mm); assay type: organism-based; settings: in vivo, other, 1176 h
Abelmoschus esculentus [19] = test: Phytotoxicity in Abelmoschus esculentus assessed as seed germination at 0.33 kg a.i/ha applied as solution after 7 weeks (reference value: 85.7 +/- 0.36 %); assay type: organism-based; settings: in vivo, other, 1176 h
Abelmoschus esculentus [20] = test: Phytotoxicity in Abelmoschus esculentus assessed as shoot length at 1.32 kg a.i/ha treated to soil after 7 weeks (reference value: 8.5 +/- 0.34 mm); assay type: organism-based; settings: in vivo, other, 1176 h
Calopogonium mucunoides [21] = test: Herbicidal activity against Calopogonium mucunoides in Corchorus olitorius plots assessed as weed cover at 1.32 kg a.i/ha after 4 weeks (reference value: 20.1+/- 0.57 %); assay type: functional
Abelmoschus esculentus [22] = test: Phytotoxicity in Abelmoschus esculentus assessed as root length at 0.66 kg a.i/ha treated to soil after 7 weeks (reference value: 2.9 +/- 0.45 mm); assay type: organism-based; settings: in vivo, other, 1176 h
Corchorus olitorius [23] = test: Phytotoxicity in Corchorus olitorius assessed as seed germination at 0.66 kg a.i/ha applied as solution after 7 weeks relative to untreated control; assay type: organism-based; settings: in vivo, other, 1176 h
Abelmoschus esculentus [24] = test: Phytotoxicity in Abelmoschus esculentus assessed as shoot length at 0.99 kg a.i/ha applied as solution after 7 weeks (reference value: 28.7 +/- 0.34 mm); assay type: organism-based; settings: in vivo, other, 1176 h
Cyperus rotundus = test: Herbicidal activity against Cyperus rotundus in Corchorus olitorius plots assessed as weed cover at 0.66 kg a.i/ha after 7 weeks (reference value: 1.7 +/- 0.56 %); assay type: functional
Commelina diffusa [25] = test: Herbicidal activity against Commelina diffusa in Abelmoschus esculentus plots assessed as weed cover at 0.66 kg a.i/ha after 2 weeks (reference value: 63.5 +/- 0.29 %); assay type: functional
Calopogonium mucunoides [26] = test: Herbicidal activity against Calopogonium mucunoides in Abelmoschus esculentus plots assessed as major weed growth at 1.32 kg a.i/ha after 2 weeks; assay type: functional
Abelmoschus esculentus [27] = test: Phytotoxicity in Abelmoschus esculentus assessed as root length at 0.33 kg a.i/ha treated to soil after 7 weeks (reference value: 2.9 +/- 0.45 mm); assay type: organism-based; settings: in vivo, other, 1176 h
Corchorus olitorius [28] = test: Phytotoxicity in Corchorus olitorius assessed as root length at 0.99 kg a.i/ha applied as solution after 7 weeks (reference value: 14.3 +/- 1.06 mm); assay type: organism-based; settings: in vivo, other, 1176 h
Ageratum conyzoides [29] = test: Herbicidal activity against Ageratum conyzoides in Corchorus olitorius plots assessed as weed recovery at 0.33 kg a.i/ha after 2 weeks (reference value: 78.3 +/- 0.74 %); assay type: functional
Asteraceae [30] = test: Herbicidal activity against Aspilia africana in Corchorus olitorius plots assessed as weed recovery at 0.66 kg a.i/ha after 2 weeks (reference value: 78.3 +/- 0.74 %); assay type: functional
Calopogonium mucunoides [31] = test: Herbicidal activity against Calopogonium mucunoides in Abelmoschus esculentus plots assessed as weed cover at 0.99 kg a.i/ha after 4 weeks (reference value: 22.6 +/- 0.49 %); assay type: functional
Corchorus olitorius [32] = test: Phytotoxicity in Corchorus olitorius assessed as seedling injury at 0.66 kg a.i/ha applied as solution after 7 weeks relative to control; assay type: organism-based; settings: in vivo, other, 1176 h
Commelina diffusa [33] = test: Herbicidal activity against Commelina diffusa in Corchorus olitorius plots assessed as weed cover at 0.66 kg a.i/ha after 2 weeks (reference value: 81.7 +/- 0.43 %); assay type: functional
Asteraceae [34] = test: Herbicidal activity against Aspilia africana in Corchorus olitorius plots assessed as minor weed growth at 0.66 kg a.i/ha after 2 weeks; assay type: functional

**Q.** With `CCC(CC)Nc1c([N+](=O)[O-])cc(C)c(C)c1[N+](=O)[O-]` [PENDIMETHALIN] as the molecule, how does the Activity (Ageratum conyzoides [1]) read?
**A.** The Activity was 39.2%.

**Q.** What about the Activity (Asteraceae [2]) of the same molecule?
**A.** The Activity was 51.7%.

**Q.** And the Activity (Euphorbia heterophylla [3])?
**A.** The Activity was 90%.

**Q.** What about the Activity (Euphorbia heterophylla [4]) of the same molecule?
**A.** The Activity was 95%.

**Q.** And the Activity (Euphorbia heterophylla [5])?
**A.** The Activity was 33.2%.

**Q.** And the Activity (Abelmoschus esculentus [6])?
**A.** The Activity was 8.6 mm.

**Q.** And the Activity (Synedrella nodiflora)?
**A.** The Activity was 100%.

**Q.** What about the Activity (Euphorbia heterophylla [7]) of the same molecule?
**A.** Its Activity is 82.4%.

**Q.** What about the Activity (Corchorus olitorius [8]) of the same molecule?
**A.** The Activity was 83.3%.

**Q.** And the Activity (Ageratum conyzoides [9])?
**A.** Its Activity is 33.2%.

**Q.** What about the Activity (Corchorus olitorius [10]) of the same molecule?
**A.** Its Activity is 5.3 mm.

**Q.** What about the Activity (Ageratum conyzoides [11]) of the same molecule?
**A.** The Activity was 31 /m2.

**Q.** What about the Activity (Corchorus olitorius [12]) of the same molecule?
**A.** Its Activity is 86.7%.

**Q.** And the Activity (Corchorus olitorius [13])?
**A.** Its Activity is 22.5 mm.

**Q.** What about the Activity (Corchorus olitorius [14]) of the same molecule?
**A.** Its Activity is 41.7%.

**Q.** What about the Activity (Euphorbia heterophylla [15]) of the same molecule?
**A.** Its Activity is 56.8%.

**Q.** And the Activity (Calopogonium mucunoides [16])?
**A.** The Activity was 31.7%.

**Q.** And the Activity (Euphorbia heterophylla [17])?
**A.** The Activity was 100%.

**Q.** What about the Activity (Abelmoschus esculentus [18]) of the same molecule?
**A.** Its Activity is 11.8 mm.

**Q.** What about the Activity (Abelmoschus esculentus [19]) of the same molecule?
**A.** The Activity was 52.7%.

**Q.** What about the Activity (Abelmoschus esculentus [20]) of the same molecule?
**A.** Its Activity is 3.6 mm.

**Q.** And the Activity (Calopogonium mucunoides [21])?
**A.** The Activity was 33.3%.

**Q.** And the Activity (Abelmoschus esculentus [22])?
**A.** The Activity was 1.4 mm.

**Q.** What about the Activity (Corchorus olitorius [23]) of the same molecule?
**A.** The Activity was 84.7%.

**Q.** And the Activity (Abelmoschus esculentus [24])?
**A.** The Activity was 14.7 mm.

**Q.** What about the Activity (Cyperus rotundus) of the same molecule?
**A.** Its Activity is 100%.

**Q.** And the Activity (Commelina diffusa [25])?
**A.** Its Activity is 50.8%.

**Q.** And the Activity (Calopogonium mucunoides [26])?
**A.** Its Activity is 31 /m2.

**Q.** And the Activity (Abelmoschus esculentus [27])?
**A.** The Activity was 3 mm.

**Q.** And the Activity (Corchorus olitorius [28])?
**A.** Its Activity is 2.5 mm.

**Q.** And the Activity (Ageratum conyzoides [29])?
**A.** Its Activity is 31.7%.

**Q.** What about the Activity (Asteraceae [30]) of the same molecule?
**A.** The Activity was 33.3%.

**Q.** And the Activity (Calopogonium mucunoides [31])?
**A.** The Activity was 39.2%.

**Q.** And the Activity (Corchorus olitorius [32])?
**A.** The Activity was 31.7%.

**Q.** What about the Activity (Commelina diffusa [33]) of the same molecule?
**A.** The Activity was 51.7%.

**Q.** What about the Activity (Asteraceae [34]) of the same molecule?
**A.** Its Activity is 1 /m2.
